Laboratory results from article PMC7870638, “Toxicity of anticancer drugs in human placental tissue explants and trophoblast cell lines” (Archives of Toxicology, 2020).
Like-named read-outs stand apart in the source and are kept apart here.

Tests used:
[1] = tested on: progesterone release in syncytialised BeWo cells; assay: Steroidogenesis (progesterone release) in syncytialised BeWo cells; format: cell-based, human; conditions: 48 h; for progesterone release (in words): crizotinib 1 μM, paclitaxel 3 nM, cisplatin 100 μM, carboplatin 100 μM
Experimental: (§1) Two human choriocarcinoma-derived placental cell lines were used: JEG3 and BeWo (ATCC catalog numbers HTB-36 and CCL-98, respectively). JEG3 cells were cultured in DMEM and Bewo cells in Ham’s F-12 K medium, supplemented with 10% fetal calf serum and 1% penicillin and streptomycin under a humidified 5% CO2/95% air atmosphere at 37 °C. Cells were passaged (JEG3: 1:10 twice a week; BeWo: 1:3 once a week) after trypsinization with 0.05% Trypsin–EDTA when cells reached approximately 80% confluency. For BeWo cells, the medium was renewed 3 times a week. To create syncytialised BeWo cells, regular BeWo cells were treated with 50 μM forskolin (Sigma-Aldrich, St. Louis, MO, USA) in 0.1% DMSO, to initiate syncytialisation. As forskolin increases the intracellular cAMP levels, it activates protein kinase A after which syncytialisation and fusion of trophoblasts occurs (Orendi et al. [2010]).
For doxorubicin, only two concentrations were tested. Conditioned medium, containing the secreted hormones, was collected after 48 h exposure to the TKIs and cytostatic drugs and stored at − 80 °C until analysis. To eliminate the influence of the varying cell densities between the wells, total protein content in each well was measured. Cells were washed twice with Hank’s buffered Salt Solution (HBSS) and lysed with 50 μL 1 M sodium hydroxide (NaOH). Subsequently, 10 μL of the lysate was mixed with 190 μL of 5 times diluted dye reagent (Biorad protein assay). The absorbance was measured at 595 nm using a Biorad Multiwell Plate reader. The quantities of protein in the samples were determined via a calibration curve of bovine serum albumin.
(§2) Progesterone and estrone concentrations in culture medium were determined by LC–MS/MS analysis using an Acquity UPLC (Waters, Milford, MA, USA) equipped with a C18 UPLC column (Acquity UPLC BEH C18, 2.1 × 50 mm, Milford, MA, USA, Waters) coupled to a Xevo TQ-S (Waters) triple quadrupole mass spectrometer. Progesterone-D9 was used as internal standard and calibration curves were made in the matrix. To precipitate proteins, methanol containing the internal standard was added to culture medium samples in a ratio 3:1 (MeOH:medium). Following subsequent centrifugation (13,000g for 3 min), 1 μl of the clear supernatant was injected into the LC–MS to quantify progesterone and estrone. Solvent A consisted of 0.2 mM NH4F in water and solvent B consisted of 0.2 mM NH4F in Acetonitrile:Methanol in a ratio of 75:25%. Separation was performed at a flow rate of 350 µl/min under the following gradient conditions: 0 min 60% eluent A, 3.0 min 0% eluent A, 4 min 0% eluent A, 5 min 60% eluent A. The effluent from the UPLC was passed directly into the electrospray ion source. Positive electrospray ionization was achieved using nitrogen as a desolation gas with ionization voltage at 600 V. The source temperature was set at 500 °C and argon was used as collision gas. The following SRM transitions were used: m/z 315.10 (parent ion) to m/z 69.9 and m/z 108.9 (both product ions) for progesterone, m/z 269.0 (parent ion) to m/z 144.9 and 158.9 (product ions) for estrone, and m/z 324.2 (parent ion) to m/z 99.9 and m/z 112.9 (product ions) for the internal standard d9-progesterone. We also attempted to quantify estradiol and estriol levels in the culture medium of both explants and cells, but these were below the detection limit.

[2] = ref Gaver et al. [1988]; cited from earlier work
[3] = tested on: placental villous explants; assay: MTT assay in placental explants (tissue viability); format: cell-based, human; conditions: 72 h exposure, 1, 10 or 100 µM
Experimental: (§3) Term placentas, obtained from consenting women following uncomplicated pregnancies and delivered vaginally or by caesarean section, were used for all experiments. Approval of the Regional Committee on Research involving Human Subjects was obtained (File 2014-1397). Within 60 min after delivery, 1 cm^3 villous tissue samples were excised at random areas midway between the umbilical cord and distal edge of the placenta. To remove maternal blood, samples were carefully rinsed in sterile Dulbecco’s phosphate-buffered saline supplemented with calcium chloride and magnesium chloride (Sigma-Aldrich, St. Louis, MO, USA) which was kept at 37 °C. The villous tissue was cut into small pieces weighing approximately 5 mg, after which 4–6 pieces of tissue were cultured together in individual wells of a 6-well plate. The explants were cultured in 1.5 ml of RPMI-1640 culture medium (Gibco, USA) with 15% heat-inactivated fetal bovine serum, 1% penicillin streptomycin, 1% gentamicin, and 1% amphotericin B (Life Technologies, USA). Placental explant cultures were kept for 7 days at 37 °C in a humidified gas mixture of 5% CO2 and 95% air. The culture medium was renewed every 24 h.
(§4) Treatment with TKIs or cytostatic drugs was started at day four of culture to allow for the syncytiotrophoblasts to regenerate (Siman et al. [2001]). Explants were then incubated for 72 h with 1, 10 or 100 µM of all TKIs or cytostatic drugs mentioned above. […] Culture medium was replaced every 24 h with new medium containing the original concentration of the drug. Supernatant was collected each day and stored at − 20 °C for hormone quantification.
(§5) To evaluate tissue and cell viability, after 72 h of drug exposure, tissue explants were incubated for 4 h at 37 °C with 1 mM 3-(4,5-dimethylthiazol-2-yl)-[…] (MTT) in RPMI. After incubation, the medium was removed, the tissue in each well was weighed, and the explants were subsequently placed in 500 µL DMSO for 10 min to dissolve the formazan formed. After 10 min, the DMSO was transferred to a 96-well plate and absorbance was measured at 540 nm using a Biorad Multiwell Plate reader.
(§6) Construction of graphs and data analysis were performed using Graphpad Prism version 8.4.2. MTT conversion and progesterone and estrone release in placental explants were normalized to tissue wet weight. To compare the effects on tissue viability and cell viability, the data were normalized to control conditions and mean differences were tested using an unpaired t test, a one-way ANOVA, or a two-way repeated measures ANOVA. The change in progesterone release rate as compared to the baseline (at 0 h) was calculated for each well separately, after which data were normalized to control conditions. One-way ANOVA was used to assess effects at the 72 h time point only. The Bonferroni post hoc test was applied to compare treatment conditions with controls. Data are described as mean ± SD in Figs. 2 and 3 and as mean ± SEM in all other figures where comparisons of means between groups were made. The mean and SD or SEM were calculated from all individual results (three experiments performed in duplicate or triplicate wells, n = 6 or n = 9).

[4] = tested on: progesterone and estrone release in placental explants; assay: Steroid (progesterone, estrone) release in placental explants, LC-MS/MS of culture medium; format: cell-based, human; conditions: placental explants; for progesterone release relative to control (in words): 100 µM, 72 h exposure; for reduction in progesterone release (in words): 10 and 100 µM gefitinib, 100 μM imatinib, effects over time (Fig. S2A)
Experimental: as §3
Treatment with TKIs or cytostatic drugs was started at day four of culture to allow for the syncytiotrophoblasts to regenerate (Siman et al. [2001]). Explants were then incubated for 72 h with 1, 10 or 100 µM of all TKIs or cytostatic drugs mentioned above. […] For cisplatin and carboplatin, culture medium was used as a solvent. Culture medium was replaced every 24 h with new medium containing the original concentration of the drug. Supernatant was collected each day and stored at − 20 °C for hormone quantification.
as §2
Construction of graphs and data analysis were performed using Graphpad Prism version 8.4.2. MTT conversion and progesterone and estrone release in placental explants were normalized to tissue wet weight. To compare the effects on tissue viability and cell viability, the data were normalized to control conditions and mean differences were tested using an unpaired t test, a one-way ANOVA, or a two-way repeated measures ANOVA. […]

[5] = tested on: JEG-3, BeWo, and syncytialised BeWo cells; assay: MTT assay, cell viability in all three trophoblast cell types; format: cell-based, human
Experimental: as §1
The cells were seeded in 96-well culture plates at a cell density of 1 × 10^4 cells/well and cultured for 24 h at 37 °C in a humidified atmosphere with 5% CO2 to allow for attachment. Subsequently, the cells were exposed to the TKIs and cytostatic drugs in concentrations ranging from 100 pM to 100 µM (triplicate). […] This is a minimum percentage DMSO, but required as cells required co-incubation with forskolin to syncytialise. Crizotinib 100 μM was used as positive control. After attachment, cells were incubated with the compounds for 48 h, after which the medium was removed and the cells were exposed to […] diluted in medium. After 3 h of incubation with MTT, the formazan crystals formed were solubilized in 50 μL DMSO. The absorbance of formazan was measured at 540 nm by a Biorad Multiwell Plate reader.

[6] = tested on: undifferentiated BeWo cells; assay: MTT assay, cell viability in undifferentiated BeWo cells; format: cell-based; conditions: Homo sapiens, 48 h exposure, read-out: concentration giving 50% reduction in cell viability
Experimental: as §1
The cells were seeded in 96-well culture plates at a cell density of 1 × 10^4 cells/well and cultured for 24 h at 37 °C in a humidified atmosphere with 5% CO2 to allow for attachment. Subsequently, the cells were exposed to the TKIs and cytostatic drugs in concentrations ranging from 100 pM to 100 µM (triplicate). […] The absorbance of formazan was measured at 540 nm by a Biorad Multiwell Plate reader.

syncytialised BeWo cells = format: cell-based, human
Experimental: The cells were seeded in 96-well culture plates at a cell density of 1 × 10^4 cells/well and cultured for 24 h at 37 °C in a humidified atmosphere with 5% CO2 to allow for attachment. Subsequently, the cells were exposed to the TKIs and cytostatic drugs in concentrations ranging from 100 pM to 100 µM (triplicate). […] This is a minimum percentage DMSO, but required as cells required co-incubation with forskolin to syncytialise. Crizotinib 100 μM was used as positive control. […] The absorbance of formazan was measured at 540 nm by a Biorad Multiwell Plate reader.

[7] = parameters: method as in Berveiller et al. [2018]; conditions: in vivo; ref Berveiller et al. [2018]; cited from earlier work
[8] = tested on: isolated third trimester primary trophoblasts; parameters: method as in Berveiller et al. [2018]; conditions: ref Berveiller et al. [2018], read-out: concentration giving 50% reduction in cell viability; cited from earlier work
[9] = tested on: progesterone release in BeWo cells; assay: Progesterone release in BeWo cells in control conditions (forskolin-induced syncytialisation); format: cell-based; conditions: Homo sapiens, 48 h, read-out: progesterone production, % of control
Experimental: Two human choriocarcinoma-derived placental cell lines were used: JEG3 and BeWo (ATCC catalog numbers HTB-36 and CCL-98, respectively). JEG3 cells were cultured in DMEM and Bewo cells in Ham’s F-12 K medium, supplemented with 10% fetal calf serum and 1% penicillin and streptomycin under a humidified 5% CO2/95% air atmosphere at 37 °C. Cells were passaged (JEG3: 1:10 twice a week; BeWo: 1:3 once a week) after trypsinization with 0.05% Trypsin–EDTA when cells reached approximately 80% confluency. For BeWo cells, the medium was renewed 3 times a week. […]
For doxorubicin, only two concentrations were tested. […] To eliminate the influence of the varying cell densities between the wells, total protein content in each well was measured. […] The absorbance was measured at 595 nm using a Biorad Multiwell Plate reader. The quantities of protein in the samples were determined via a calibration curve of bovine serum albumin.
Progesterone and estrone concentrations in culture medium were determined by LC–MS/MS analysis using an Acquity UPLC (Waters, Milford, MA, USA) equipped with a C18 UPLC column (Acquity UPLC BEH C18, 2.1 × 50 mm, Milford, MA, USA, Waters) coupled to a Xevo TQ-S (Waters) triple quadrupole mass spectrometer. […] Following subsequent centrifugation (13,000g for 3 min), 1 μl of the clear supernatant was injected into the LC–MS to quantify progesterone and estrone. […]

[10] = MTT assay in placental explants (tissue viability); format: cell-based, human; conditions: female, human, term placental villous tissue explants, 100 µM, 72 h exposure, mean ± SEM, read-out: tissue viability, % of control
Experimental: as §3, §4, §5, §6

[11] = 50 µM, 24 h, 48 h and 72 h exposure starting at day 4

N.N.[Cl][Pt][Cl] [cisplatin]
progesterone release (in words) ([1]; not statistically significant): slight induction of progesterone release

N.N.O=C([O-])C1(C(=O)[O-])CCC1.[Pt+2] [carboplatin]
progesterone release (in words) ([1]; not statistically significant): slight induction of progesterone release
plasma concentration (may be as high as) [2]: ≤ 100 µM

C[C@@H](Oc1cc(-c2cnn(C3CCNCC3)c2)cnc1N)c1c(Cl)ccc(F)c1Cl [crizotinib, Crizotinib]
effect on tissue viability (in words) [3]: fully inhibited tissue viability
progesterone release relative to control (in words) [4]: statistically significant reduction in progesterone release
progesterone release (in words) ([1]; not statistically significant): slight induction of progesterone release

CC(=O)O[C@H]1C(=O)[C@@]2(C)[C@H]([C@H](OC(=O)c3ccccc3)[C@]3(O)C[C@H](OC(=O)[C@H](O)[C@@H](NC(=O)c4ccccc4)c4ccccc4)C(C)=C1C3(C)C)[C@]1(OC(C)=O)CO[C@@H]1C[C@@H]2O [paclitaxel]
effect on tissue viability (in words) [3]: moderately affected tissue viability, but this was not statistically significant
IC50 ([5]; Homo sapiens, all cell types (JEG-3, BeWo, syncytialised BeWo), 48 h exposure, read-out: concentration at which cell viability was reduced to 50% or less): 3 to 10 nM
IC50 [6]: 1 to 3 nM
cytotoxicity in syncytialised BeWo cells compared to undifferentiated BeWo and JEG3 cells (in words) (syncytialised BeWo cells; 48 h exposure): consistently less cytotoxic in syncytialised BeWo cells
progesterone release (in words) ([1]; not statistically significant): slight induction of progesterone release
concentration in placental tissue compared to maternal levels at delivery [7]: ten-fold higher
IC50 [8]: 18 to 180 nM

C=C[C@@]1(C)CC(=O)[C@]2(O)[C@@]3(C)[C@@H](O)CCC(C)(C)[C@@H]3[C@H](O)[C@H](OC(C)=O)[C@@]2(C)O1 [forskolin]
estrone release (in words) [4, 11]: significant induction in estrone release
progesterone release (in words) [4, 11]: not progesterone release
effect on cell viability (in words) ([5]; JEG-3 or BeWo cells, 50 μM, 48 h incubation): did not alter cell viability
activity at 50 µM ([9]; Forskolin 50 μM in 0.1% DMSO): 370 ± 50%
activity at 50 µM ([9]; Forskolin 50 μM in 0.5% DMSO): 215 ± 12%

CCN(CC)CCNC(=O)c1c(C)[nH]c(/C=C2\C(=O)Nc3ccc(F)cc32)c1C [sunitinib, sunitinib malate]
effect on tissue viability (in words) [3]: fully inhibited tissue viability
progesterone release relative to control (in words) [4]: statistically significant reduction in progesterone release
cytotoxicity in syncytialised BeWo cells compared to undifferentiated BeWo and JEG3 cells (in words) (syncytialised BeWo cells): inhibited cell viability at multiple concentrations to a lesser extent in syncytialised BeWo cells
activity at 1 µM ([1]; Homo sapiens, 1 µM, P < 0.05, read-out: progesterone release, % of control): 76 ± 6%
activity at 3 µM ([1]; Homo sapiens, 3 µM, P < 0.001, read-out: progesterone release, % of control): 50 ± 4%

COc1cc2ncnc(Nc3ccc(F)c(Cl)c3)c2cc1OCCCN1CCOCC1 [gefitinib]
viability at 72 h, 100 µM [10]: 24 ± 4%
reduction in progesterone release (in words) [4]: only statistically significant if effects over time were analyzed

Cc1ccc(NC(=O)c2ccc(CN3CCN(C)CC3)cc2)cc1Nc1nccc(-c2cccnc2)n1 [imatinib, Imatinib]
reduction in progesterone release (in words) [4]: only statistically significant if effects over time were analyzed
activity at 10 µM ([1]; Homo sapiens, 10 µM, not statistically significant, read-out: progesterone release, % of control): 76 ± 9%
